Measured values: patent EP0405506A1, “Tetrapeptide type-B CCK receptor ligands” (ABBOTT LABORATORIES, priority 1989, dated 1991)
Read-outs that look alike come from different tables or passages of the source. Square brackets hold non-standard residues; d marks the D form. Peptide text beside a SMILES is read from it. * marks the point of attachment. Ala(1H-tetrazol-5-yl) = N[C@@H](Cc1nnn[nH]1)C(=O)O; 1Nal = N[C@@H](Cc1cccc2ccccc12)C(=O)O; 2Nal = N[C@@H](Cc1ccc2ccccc2c1)C(=O)O; Tic = O=C(O)[C@@H]1Cc2ccccc2CN1; Cha = N[C@@H](CC1CCCCC1)C(=O)O; NMeL = CN[C@@H](CC(C)C)C(=O)O; Cbz = O=C(OCc1ccccc1)*; Boc = CC(C)(C)OC(=O)*

How the values were obtained:
cortical CCK receptor = molecular target: T1, cortical CCK receptor (Cavia porcellus, UniProt H0VZC5); assay: Radioligand binding ([125I]Bolton-Hunter CCK8) in guinea pig cerebral cortical membranes; details: displacement of [125I]BH-CCK8, cortical membranes, 30°C for 150 min, Hill analysis; read-out: IC₅₀ (nM) cortex
T1 construct: Cortical and pancreatic membranes were prepared as described; from tissue; host or cells: guinea pig cerebral cortex membranes
T1 sequence (H0VZC5 1-426): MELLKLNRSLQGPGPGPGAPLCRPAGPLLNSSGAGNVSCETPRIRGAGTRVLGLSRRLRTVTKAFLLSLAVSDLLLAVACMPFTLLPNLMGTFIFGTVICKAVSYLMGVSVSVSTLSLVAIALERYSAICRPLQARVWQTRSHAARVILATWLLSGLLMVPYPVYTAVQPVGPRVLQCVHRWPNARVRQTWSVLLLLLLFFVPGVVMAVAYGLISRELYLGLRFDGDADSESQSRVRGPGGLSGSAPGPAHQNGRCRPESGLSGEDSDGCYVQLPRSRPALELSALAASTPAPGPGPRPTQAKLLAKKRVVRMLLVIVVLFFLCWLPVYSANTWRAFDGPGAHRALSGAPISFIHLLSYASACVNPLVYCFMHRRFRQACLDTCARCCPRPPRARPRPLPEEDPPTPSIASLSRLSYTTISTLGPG
Description: Protocol for Radioligand Binding Experiments in Guinea Pig Cerebral Cortical and Pancreatic Membrance Preparations
CCK8 (Asp-Tyr(SO₃H)-Met-Gly-Trp-Met-Asp-Phe-NH₂), bestatin and phosphormaidon were purchased from Peptide International (Louisville, KY). EGTA, HEPES, BSA were purchased from Sigma Chemical Co. (St. Louis, MO). [¹²⁵I]-Bolton-Hunter CCK8 (BH-CCK8) (specific activity, 2200 Ci, mmol) was obtained from New England Nuclear (Boston, MA). Male ginea pigs, 250 to 325 g, were obtained from Scientific Small Animal Laboratory and Farm (Arlington Heights, IL). Collangenase, code CLSPA was purchased from Worthington (Frehold, NJ).
Cortical and pancreatic membranes were prepared as described (Lin and Miller; J. Pharmacol. Exp. Ther. 232, 775-780, 1985). In brief, pancreas and cortex were removed and rinsed with ice-cold saline. Visible fat and connective tissues were removed from the pancreas. Tissues were weighed and homogenized in approximately 25 mL of ice-cold 50 mM Tris-HCl buffer, pH 7.4 at 4°C with a Brinkman Polytron for 30 sec, setting 7. The homogenates were centrifuged for 10 min at 1075 x g and the pellet was discarded. The supernantants were saved and centrifuged at 38,730 x g for 20 min. The resultant pellets were rehomogenized in 25 mL of 50 mM Tris-HCl buffer with a Teflon-glass homogenizer, 5 up and down strokes. The homogenates were centrifuged again at 38,730 x g for 20 min. The pellets were then resuspended in 20 mM HEPES, containing 1 mM EGTA, 118 mM NaCl, 4.7 mM KCl, 5mM MgCl₂, 100 uM bestatin, 3 uM phosphoramidon, pH 7.4 at 22°C with a Teflon-glass homogenizer, 15 up and down strokes. The resuspension volume used for the cortex was 15 mL per g of original wet weight and 60 mL per g for pancreas.
[¹²⁵I]Bolton-Hunter CCK8 and test compounds were diluted with HEPES-EGTA-salt buffer (see above) containing 0.5% bovine serum albumin (BSA). To 1 mL Skatron polystyrene tubes were added 25 uL of test compounds, 25 uL of [¹²⁵I]BH-CCK8 and 200 uL of membrane suspension. The final BSA concentration was 0.1%. The cortical tissues were incubated at 30°C for 150 min. and pancreatic tissues were incubated at 37°C for 150 min. Incubations were terminated by filtration using Skatron Cell Harvester and SS32 microfiber filter mats. The specific binding of [¹²⁵I]BH-CCK8, defined as the difference betwen binding in the absence and presence of 1 uM CCK8, was 85-90% of total binding in cortex and 90-95% in pancreas. IC₅₀s were determined from the Hill analysis.

CCK receptors = molecular target: T2, CCK receptors (Cavia porcellus, UniProt Q63931); assay: Radioligand binding ([125I]Bolton-Hunter CCK8) in guinea pig pancreatic membranes
T2 construct: Cortical and pancreatic membranes were prepared as described; from tissue; host or cells: guinea pig pancreas membranes
T2 sequence (Q63931 1-430): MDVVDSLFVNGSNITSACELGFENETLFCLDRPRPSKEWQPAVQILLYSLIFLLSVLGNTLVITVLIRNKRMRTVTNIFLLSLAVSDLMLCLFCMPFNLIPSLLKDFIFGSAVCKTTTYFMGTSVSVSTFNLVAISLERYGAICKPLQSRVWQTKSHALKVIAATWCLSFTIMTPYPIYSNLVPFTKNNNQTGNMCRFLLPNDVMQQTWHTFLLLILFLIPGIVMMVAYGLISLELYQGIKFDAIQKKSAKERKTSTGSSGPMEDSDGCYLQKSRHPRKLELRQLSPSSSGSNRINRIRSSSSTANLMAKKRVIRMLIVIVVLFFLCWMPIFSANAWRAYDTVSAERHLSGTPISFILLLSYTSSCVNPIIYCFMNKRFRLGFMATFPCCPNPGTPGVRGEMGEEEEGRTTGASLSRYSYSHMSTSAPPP
Description: EGTA, HEPES, BSA were purchased from Sigma Chemical Co. (St. Louis, MO). […] Male ginea pigs, 250 to 325 g, were obtained from Scientific Small Animal Laboratory and Farm (Arlington Heights, IL). Collangenase, code CLSPA was purchased from Worthington (Frehold, NJ).
The final BSA concentration was 0.1%. The cortical tissues were incubated at 30°C for 150 min. and pancreatic tissues were incubated at 37°C for 150 min. Incubations were terminated by filtration using Skatron Cell Harvester and SS32 microfiber filter mats. […] IC₅₀s were determined from the Hill analysis.

[1] = molecular target: T3, CCK-B receptors on small cell lung cancer cell lines (Homo sapiens, UniProt P32239); assay: Measurement of [Ca++]i changes in NCI-H345 and H209 cell lines (indo-1 fluorescence); format: cell-based; details: read-out: Intrinsic Activity Relative to CCK-8
T3 construct: endogenous in cells; host or cells: NCI-H345 and H209 small cell lung cancer cells
T3 sequence (P32239 1-447): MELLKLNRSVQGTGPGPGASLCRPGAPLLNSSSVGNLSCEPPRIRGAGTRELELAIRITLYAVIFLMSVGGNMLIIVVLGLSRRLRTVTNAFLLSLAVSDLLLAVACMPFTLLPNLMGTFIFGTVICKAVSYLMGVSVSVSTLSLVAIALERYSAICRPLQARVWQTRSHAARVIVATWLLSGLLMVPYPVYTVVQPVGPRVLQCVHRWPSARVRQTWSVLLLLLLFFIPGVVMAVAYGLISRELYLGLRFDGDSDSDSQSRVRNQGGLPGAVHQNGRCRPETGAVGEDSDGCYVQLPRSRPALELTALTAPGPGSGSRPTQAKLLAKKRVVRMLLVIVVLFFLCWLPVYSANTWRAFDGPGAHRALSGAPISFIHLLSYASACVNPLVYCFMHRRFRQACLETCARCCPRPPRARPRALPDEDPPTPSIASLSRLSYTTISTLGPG
Description: Protocol for Measuring [Ca++]i Changes in NCI-H345 and H209 Cell Lines
Culture conditions were as described (D.G. Yoder, T.W. Moody, Peptides, 8, 103 (1987), except that the medium was modified to RPMI 1640 with 2.5% fetal bovine serum (heat inactivated), 5µg/l sodium selenite, 5 mg/l human transferrin, 5 mg/l insulin, penicillin (100 U/l) and streptomycin (100 µg/l). To measure intracellular Ca²⁺, cells were loaded with 1 µM of indo-1,AM, for 60 min at 37°C. The cells were centrifuged at 750 x g for 5 min and resuspended in 40 mL Buffer F (Dulbecco's phosphate buffered saline containing 0.1% glucose, pH 7.4). The cells were counted then twice washed by centrifugation. The final pellet was resuspended (approximately 1 x 10⁶ cells/mL) in Buffer F. The cells were thermally equilibrated in a thermostated cuvette (37°C) for 2 min prior to base-line fluorescence measurement. Fluorescence measurements were made with an SLM 8000C spectrofluorimeter equipped with magnetic microstirrer and polarizing filters. Measurements with indo-1-loaded cells were obtained at excitation wavelength of 350 nm and emission wavelength of 480 and 405 nM and the time interval for the measurements was 0.5 sec.

[2] = displacement of [125I]BH-CCK8, pancreatic membranes, 37°C for 150 min, Hill analysis, read-out: IC₅₀ (uM) pancreas

Row | Compound | IC50 (cortical CCK receptor) | IC50 (CCK receptors; [2]) | Emax [1] | IC50 (CCK receptors)
1 | CC(C)C[C@H](NC(=O)[C@H](Cc1c[nH]c2ccccc12)NC(=O)OC(C)(C)C)C(=O)N[C@@H](Cc1nnn[nH]1)C(=O)N[C@@H](Cc1ccccc1)C(N)=O [Example 9, Boc-Trp-Leu-[β-1(2)H-tetrazol-5-yl]-L-alanyl-Phe-NH₂] (Boc-WL[Ala(1H-tetrazol-5-yl)]F-NH2) | 13 nM | > 1 µM |  | 
2 | CC(C)C[C@H](NC(=O)[C@@H]1Cc2c[nH]c3cccc(c23)CC(=O)N1)C(=O)N[C@@H](CC(=O)O)C(=O)N(C)[C@@H](Cc1ccccc1)C(N)=O [Example 6, Ctp-Leu-Asp-(NMe)Phe-NH₂] |  |  | 96% | 
3 | CC(C)C[C@H](NC(=O)[C@@H]1Cc2c[nH]c3cccc(c23)CC(=O)N1)C(=O)N[C@@H](CC(=O)O)C(=O)NC(=Cc1ccccc1)C(N)=O [Example 23, Ctp-Leu-Asp-(dehydro)Phe-NH₂] | 16 nM | > 10 µM |  | 
4 | CC(C)C[C@H](NC(=O)[C@H](Cc1c[nH]c2ccccc12)NC(=O)OC(C)(C)C)C(=O)N[C@@H](CC(=O)O)C(=O)N[C@@H](Cc1c[nH]c2ccccc12)C(N)=O [Example 42, Boc-Trp-Leu-Asp-Trp-NH₂] (Boc-WLDW-NH2) | 13 nM | 3.8 µM |  | 
5 | CC(C)C[C@H](NC(=O)[C@H](Cc1c[nH]c2ccccc12)NC(=O)OC(C)(C)C)C(=O)N[C@@H](CC(=O)O)C(=O)N1Cc2ccccc2C[C@H]1C(N)=O [Example 2, Boc-Trp-Leu-Asp-Tiq-NH₂] (Boc-WLD[Tic]-NH2) | 37 nM |  |  | 19 µM
6 | CC(C)C[C@H](NC(=O)[C@H](Cc1c[nH]c2ccccc12)NC(=O)OC(C)(C)C)C(=O)N[C@@H](CC(=O)O)C(=O)N[C@@H](Cc1cccc2ccccc12)C(N)=O [Example 45, Boc-Trp-Leu-Asp-α-Nal-NH₂] (Boc-WLD[1Nal]-NH2) | 12 nM | 1.7 µM |  | 
7 | CC(C)C[C@@H](C(=O)N[C@@H](CC(=O)O)C(=O)N[C@@H](Cc1ccccc1)C(N)=O)N(C)C(=O)[C@H](Cc1c[nH]c2ccccc12)NC(=O)OCc1ccccc1 [Example 15, Cbz-Trp-(NMe)Leu-Asp-Phe-NH₂] (Cbz-W[NMeL]DF-NH2) | 5 nM | 1 µM |  | 
8 | CCC[C@H]1CCN(C(=O)[C@@H]2Cc3c[nH]c4cccc(c34)CC(=O)N2)[C@@H]1C(=O)N[C@@H](CC(=O)O)C(=O)N[C@@H](Cc1cccc2ccccc12)C(N)=O [Example 57, Ctp-Tpp-Asp-α-Nal-NH₂] | 0.4 nM | 1.4 µM | 109% | 
9 | CC(C)C[C@H](NC(=O)[C@H](Cc1c[nH]c2ccccc12)NC(=O)OC(C)(C)C)C(=O)N[C@@H](CC(=O)O)C(=O)NC(=Cc1ccccc1)C(N)=O [Example 19, Boc-Trp-Leu-Asp-(dehydro)Phe-NH₂] | 54 nM | 1.8 µM |  | 
10 | CC(C)C[C@H](NC(=O)[C@H](Cc1c[nH]c2ccccc12)NC(=O)OC(C)(C)C)C(=O)N[C@@H](CC(=O)O)C(=O)N[C@@H](CC1CCCCC1)C(N)=O [Example 43, Boc-Trp-Leu-Asp-Cha-NH₂] (Boc-WLD[Cha]-NH2) | 170 nM | 11 µM |  | 
11 | CCC[C@H]1CCN(C(=O)[C@@H]2Cc3c[nH]c4cccc(c34)CC(=O)N2)[C@@H]1C(=O)N[C@@H](CC(=O)O)C(=O)N[C@@H](CC1CCCCC1)C(N)=O [Example 59, Ctp-Tpp-Asp-Cha-NH₂] | 0.9 nM | 4.3 µM |  | 
12 | CC(C)C[C@H](NC(=O)[C@@H]1Cc2c[nH]c3cccc(c23)CC(=O)N1)C(=O)N[C@@H](CC(=O)O)C(=O)N[C@@H](Cc1ccccc1)C(N)=O [Example 1, CTP-Leu-Asp-Phe-NH₂] | 2.5 nM | 2.7 µM |  | 
13 | CC(C)C[C@H](NC(=O)[C@H](Cc1c[nH]c2ccccc12)NC(=O)OC(C)(C)C)C(=O)N[C@@H](CC(=O)O)C(=O)N[C@@H](Cc1ccc2ccccc2c1)C(N)=O [Example 44, Boc-Trp-Leu-Asp-β-Nal-NH₂] (Boc-WLD[2Nal]-NH2) |  |  | 104% | 
14 | CCC[C@H]1CCN(C(=O)[C@H](Cc2c[nH]c3ccccc23)NC(=O)OC(C)(C)C)[C@@H]1C(=O)N[C@@H](CC(=O)O)C(=O)N[C@@H](Cc1c[nH]c2ccccc12)C(N)=O [Example 54, Boc-Trp-Tpp-Asp-Trp-NH₂] | 5 nM | 3.7 µM |  | 
15 | CCC[C@H]1CCN(C(=O)[C@@H]2Cc3c[nH]c4cccc(c34)CC(=O)N2)[C@@H]1C(=O)N[C@@H](CC(=O)O)C(=O)N[C@@H](Cc1ccc2ccccc2c1)C(N)=O [Example 58, Ctp-Tpp-Asp-β-Nal-NH₂] | 1.9 nM | 11 µM | 100% | 
16 | CCC[C@H]1CCN(C(=O)[C@@H]2Cc3c[nH]c4cccc(c34)CC(=O)N2)[C@@H]1C(=O)N[C@@H](CC(=O)O)C(=O)N(C)[C@@H](Cc1ccccc1)C(N)=O [Example 52, Ctp-Tpp-Asp-(NMe)Phe-NH₂] | 2.6 nM | 3.5 µM | 100% | 
17 | CCC[C@H]1CCN(C(=O)[C@H](Cc2c[nH]c3ccccc23)NC(=O)OC(C)(C)C)[C@@H]1C(=O)N[C@@H](CC(=O)O)C(=O)N[C@@H](Cc1ccccc1)C(N)=O [Example 47, Boc-Trp-Tpp-Asp-Phe-NH₂] | 1.2 nM | 89 µM |  | 
18 | CC(C)C[C@H](NC(=O)[C@H](Cc1ccc2ccccc2c1)NC(=O)OC(C)(C)C)C(=O)N[C@@H](CC(=O)O)C(=O)N[C@@H](Cc1ccccc1)C(N)=O [Example 50, Boc-β-Nal-Leu-Asp-Phe-NH₂] (Boc-[2Nal]LDF-NH2) | 27 nM | 5 µM |  | 
